# Experiments:
# [1] = system: human embryonic stem cell line H1; assay: FACS protein expression following 5-day activin A treatment (Table IIC); assay type: cell-based; settings: 5-day AA treatment
# Procedure: (§1) The level of expression of definitive endoderm markers was examined by PCR (FIGS. 1A and 1B), FACS (results summarized in Table I), and immunohistochemistry (FIGS. 2A, 2B and 2C).
# Adhered cells were removed from culture plates by five-minute incubation with TrypLE™ Express solution (Invitrogen, CA). Released cells were resuspended in human embryonic stem cell culture medium and recovered by centrifugation, followed by washing and resuspending the cells in a staining buffer consisting of 2% BSA, 0.05% sodium azide in PBS (Sigma, MO). As appropriate, the cells were Fc-receptor blocked for 15 minutes using a 0.1% γ-globulin (Sigma) solution. […] Controls included appropriate isotype matched antibodies, unstained cells, and cells stained only with secondary conjugated antibody. All incubations with antibodies were performed for 30 mins at 4° C. after which the cells were washed with the staining buffer. Samples that were stained with unconjugated primary antibodies were incubated for an additional 30 mins at 4° C. with secondary conjugated PE or -APC labeled antibodies. See Table I for a list of secondary antibodies used. Washed cells were pelleted and resuspended in the staining buffer, and the cell surface molecules were identified using a FACS Array (BD Biosciences) instrument, collecting at least 10,000 events.
# [2] = system: H9 cultures; assay: Definitive endoderm on varying concentrations of […] with Wnt-3a (real-time PCR); assay type: cell-based, human; settings: low serum, 100 ng/ml activin A and 20 ng/ml Wnt-3a
# Procedure: H9 cells were cultured on plates coated with regular […] at a 1:60 to 1:10 dilution. The plates were coated with […] for 1 hr at room temperature.
# [3] = system: human embryonic stem cell line H9; assay: PCR of definitive endoderm and other lineage markers after activin A, cells on mouse embryonic fibroblasts; assay type: cell-based; settings: 100 ng/ml activin A
# Text: as §1
# Cells were harvested at the time points indicated in FIGS. 3A, 3B, 3C and 3D and assayed by PCR for the expression of genes shown (FIGS. 3A, 3B, 3C, 3D, 4A, 4B, 5A and 5B).
# RNA samples were purified by binding to a silica-gel membrane (Rneasy Mini Kit, Qiagen, CA) in the presence of an ethanol-containing, high-salt buffer followed by washing to remove contaminants. The RNA was further purified using a TURBO DNA-free kit (Ambion, INC), and high-quality RNA was then eluted in water. Yield and purity were assessed by A260 and A280 readings on a spectrophotometer. cDNA copies were made from purified RNA using an ABI (ABI, CA) high capacity cDNA archive kit.
# Final data were expressed relative to a calibrator sample.
# [4] = system: H9P49 and H1P46 embryonic stem cells; assay: Definitive endoderm on MATRIGEL: effective dose of activin A with GSK-3B inhibitor or Wnt-3A; assay type: cell-based, human
# Text: FIGS. 31A, 31B, 31C and 31D is for H9P49 cells and FIGS. 31E and 31F is for H1P46 cells.
# [5] = system: human embryonic stem cell line H9; assay: Formation of pancreatic endocrine cells expressing Nkx2.2 (PCR); assay type: cell-based; settings: activin A for the first three days of culture
# Procedure: Cells were continuously cultured for another 3 to 5 days in basal medium with retinoic acid at 1 μM, alone or with bFGF. RNA samples were harvested from cells at various time points along this process to help evaluate the directed differentiation of the cells. Furthermore, culture medium and factors were regularly removed and replenished throughout the differentiation protocol.
substance,measurement,setting,value
Activin A: a member of the TGFβ superfamily; growth factor (R&D Systems) used to differentiate human embryonic stem cells,CXCR4+ cells (FACS),[1],92.78%
same,CXCR4+/C-kit+ cells (FACS),[1],92.90%
same,CXCR4+/CD9+ cells (FACS),[1],7.03%
same,CXCR4+/CD99+ cells (FACS),[1],88.78%
same,CXCR4+/EPCAM cells (FACS),[1],87.99%
same,"expression of CXCR4, GATA4, Goosecoid, HNF-3beta, and SOX-17 genes",[2],led to the expression
same,"anterior endoderm markers Cerberus, Otx-1 and Hex genes",[3],significant up regulation
same,expression of extraembryonic endoderm markers Sox7 and AFP,[3]; up to seven days,time-dependent decrease
same,lineage formed at lower doses of activin A,[4],formation of extraembryonic endoderm
same,Pdx1 expression compared to samples containing no activin A,[5],maintained Pdx1 expression

# Source: patent US11708562B2, “Differentiation of human embryonic stem cells” (Janssen Biotech, Inc., priority 2006, dated 2023)
